Data taken from patent publication US20240366611A1, “METHODS OF TREATING A DISEASE OR DISORDER” (Ascentage Pharma (Suzhou) Co., Ltd., priority 2021, published 2024).

Key:
Type in all cases: cell-based
Conditions in all cases: 7 days of treatment
[1] = system: HbF+ cells in human CD34+ HSC; test: HbF+ cell % in human CD34+ HSC by FACS
Protocol: (§1) Human cord blood CD34+ hematopoietic stem cells (HSC) were first expanded in the expansion medium (StemSpan SFEM II+StemSpan CD34 Expansion Supplement) to achieve the desired number of cells, and then differentiated in differentiation medium (StemSpan SFEM II+StemSpan Erythroid Expansion Supplement (100×)) for three days without drug treatment. Various concentrations of Cpd. 73 were added on the fourth day of differentiation and further incubated with the cells for another 7 days. 33 mM Hydroxyurea was used as the control.
After 7 days of treatment, the cells were collected and stained with PE-conjugated Mouse Anti-Human Fetal Hemoglobin (BD, 560041). The percentage of HbF+ cells were quantified by FACS. […] 73 respectively. […] 73 where HbF+ cell % was 2.58-folds of the vehicle group (p<0.0001). The % of HbF+ cells was 1.82-folds of the vehicle group when the cells were treated with 33 mM Hydroxyurea.

[2] = system: HBG mRNA in human CD34+ HSC; test: HBG mRNA level in human CD34+ HSC (qRT-PCR)
Protocol: as §1
After 7 days of treatment, the cells were collected. Total RNA was isolated using Trizol LS reagent (Invitrogen-10296028) and 1 μg RNA of each sample was reverse transcribed into cDNA using High Capacity cDNA Reverse Transcription Kit (AB (Applied Biosystems)-4374966), according to the manufacturer's instructions. Quantitative RT-PCR (qRT-PCR) was performed using an Applied Biosystems QuantStudio 7 Flex system with the primer pairs shown as below: hHBG-mRNA-F1 (5′-[…]-3′) and hHBG-mRNA-R1 (5′-TCACTCAGCTGGGCAAAGG-3′). […] The HBG mRNA level were 1.09-, 2.49-, 7.84-, 9.69- and 12.2-folds of the vehicle group when the cells were treated with 0.01 μM, 0.03 μM, 0.1 μM, 0.3 μM and 1.0 μM Cpd. 73 respectively. […] 73 which increased HBG mRNA by 12.2 folds (p<0.0001, vs. vehicle). The HBG mRNA level of cells treated with 33 mM Hydroxyurea, an approved medicine for SCD, was 6.46-folds of the vehicle group.

[3] = system: HbF in human CD34+ HSC; test: HbF concentration in human CD34+ HSC by ELISA; parameters: HbF concentration, folds of the vehicle group: dose or concentration left out as unconfirmed
Protocol: as §1
After 7 days of treatment, the cells were collected and lysed. The concentration of HbF in the cell lysate was determined using a Human Fetal Hemoglobin (HBF) ELISA Kit (MyBioSource, MBS2024474). […] The cellular HbF concentration were 1.27-, 1.39-, 1.52-, 1.58- and 1.69-folds of the vehicle group when the cells were treated with 0.01 μM, 0.03 μM, 0.1 μM, 0.3 μM and 1.0 μM Cpd. 73 respectively. […] 73 where the cellular HbF concentration was 1.69-folds of the vehicle group (p<0.01). HbF concentration of cells treated with 33 mM Hydroxyurea was 1.18-folds of the vehicle group. Clinically, small increases of HbF concentration (1-5%) have the potential to provide clinical benefits to all SCD patients.

NC(=O)NO [Hydroxyurea, reference compound]
% of HbF+ cells, folds of the vehicle group [1]: 1.82 folds | HBG mRNA level, folds of the vehicle group [2]: 6.46 folds | HbF concentration, folds of the vehicle group [3]: 1.18 folds
